In patent US7528141B2, “Use of cyclopenta[g]quinazoline derivatives for treating cancer” (BTG International Limited, priority 2001, dated 2009):
Values joined by “and” are separate entries in the source; they are usually repeats but may differ in a detail not shown here. Equal entries are not always repeated. Where two headings read alike, the source gives them in different places.

Columns and labels:
[1] = molecular target: T1, reduced-folate carrier (RFC) (Homo sapiens, UniProt P41440); test: Inhibition of 3H MTX uptake in W1L2 cells; type: cell-based; conditions: Inhibition of 3H MTX uptake Ki, W1L2, human lymphoblastoid W1L2 cells; high Ki = low affinity for RFC
T1 construct: endogenous in cells; host or cells: W1L2
T1 sequence (P41440 1-591): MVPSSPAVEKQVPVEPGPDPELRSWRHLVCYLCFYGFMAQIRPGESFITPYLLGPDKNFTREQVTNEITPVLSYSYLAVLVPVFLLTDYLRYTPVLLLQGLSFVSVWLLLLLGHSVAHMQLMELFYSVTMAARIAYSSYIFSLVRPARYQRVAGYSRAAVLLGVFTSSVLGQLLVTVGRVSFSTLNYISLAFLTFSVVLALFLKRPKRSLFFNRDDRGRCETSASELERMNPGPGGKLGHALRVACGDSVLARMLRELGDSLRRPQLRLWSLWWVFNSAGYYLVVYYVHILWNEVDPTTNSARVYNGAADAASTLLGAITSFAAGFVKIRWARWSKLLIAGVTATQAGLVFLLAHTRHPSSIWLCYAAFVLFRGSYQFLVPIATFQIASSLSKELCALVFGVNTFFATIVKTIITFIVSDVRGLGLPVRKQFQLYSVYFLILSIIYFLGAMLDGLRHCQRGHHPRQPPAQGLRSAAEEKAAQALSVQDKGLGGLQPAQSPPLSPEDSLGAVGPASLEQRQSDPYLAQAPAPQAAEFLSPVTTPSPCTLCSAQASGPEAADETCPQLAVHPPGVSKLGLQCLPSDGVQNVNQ

[2] = molecular target: T2, thymidylate synthase (TS) from L1210 mouse leukaemia cells (Mus musculus, UniProt P07607); test: Inhibition of isolated L1210 thymidylate synthase; type: biochemical; conditions: read-out: Inhibition of isolated L1210 TS, Kiapp
T2 construct: obtained in partially purified form from L1210 mouse leukaemia cells; endogenous in cells; host or cells: L1210 mouse leukaemia cells (enzyme partially purified)

[3] = molecular target: T3, reduced-folate carrier (RFC) (Mus musculus, UniProt P41438); test: Inhibition of 3H MTX uptake in L1210 cells; type: cell-based; conditions: Inhibition of 3H MTX uptake Ki, L1210, mouse L1210 tumor cells; high Ki = low affinity for RFC
T3 construct: endogenous in cells; host or cells: L1210
T3 sequence (P41438 1-512): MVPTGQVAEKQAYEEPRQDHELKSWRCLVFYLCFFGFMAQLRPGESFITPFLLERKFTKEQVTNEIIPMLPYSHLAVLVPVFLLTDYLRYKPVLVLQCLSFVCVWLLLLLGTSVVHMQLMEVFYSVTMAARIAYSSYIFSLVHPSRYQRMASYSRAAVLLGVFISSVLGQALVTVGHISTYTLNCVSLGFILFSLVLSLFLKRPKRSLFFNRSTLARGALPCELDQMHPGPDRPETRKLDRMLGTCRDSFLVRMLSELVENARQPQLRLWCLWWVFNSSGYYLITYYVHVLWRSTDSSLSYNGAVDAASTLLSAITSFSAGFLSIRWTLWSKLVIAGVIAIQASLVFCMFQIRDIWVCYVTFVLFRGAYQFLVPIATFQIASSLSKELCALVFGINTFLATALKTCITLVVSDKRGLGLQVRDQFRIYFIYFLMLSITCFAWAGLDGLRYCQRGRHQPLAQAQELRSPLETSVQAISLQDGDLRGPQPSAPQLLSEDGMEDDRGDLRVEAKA

α-FR [4] = molecular target: T4, α-FR (Mus musculus, UniProt P35846); test: Binding to α-FR relative to folic acid, L1210-FBP cells; conditions: L1210-FBP mouse tumor cells overexpressing α-FR; folic acid = 1
T4 construct: endogenous in cells; host or cells: mouse L1210-FBP cells

A431-FBP cells = test: Inhibition of cell growth, A431-FBP cells; conditions: for fold increased sensitivity compared with A431, A431-FBP: A431 IC50 vs A431-FBP IC50; for fold increased IC50 in presence of folic acid, A431-FBP: IC50 + 1 μM FA vs without FA
A431 cells = test: Inhibition of cell growth, A431 cells; conditions: for fold increased IC50 in presence of folic acid, A431: IC50 + 1 μM FA vs without FA
α-FR [5] = molecular target: T5, α-FR (Homo sapiens, UniProt P15328); test: Binding to α-FR relative to folic acid, A431-FBP cells; conditions: human A431 cells transfected with α-FR; folic acid = 1
T5 construct: expressed in transfected cells; host or cells: A431 (human vulvar carcinoma)

KB cells = test: Inhibition of cell growth, KB cells; conditions: for fold increased IC50 in presence of folic acid, KB: IC50 + 1 μM FA vs without FA;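 as to all read-outs here: KB nasopharyngeal carcinoma cells express the α-folate receptor, and leucovorin at 20 nM was the folate source in the growth medium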
[6] = Homo sapiens, read-out: Inhibition of cell growth, IC50, A431-FBP
[7] = read-out: Inhibition of cell growth, IC50, A431-FBP + 1 μM FA, 20 nM LV, + 1 μM folic acid
[8] = Homo sapiens, A-431, read-out: Inhibition of cell growth, IC50, A431
[9] = read-out: Inhibition of cell growth, IC50, A431 + 1 μM FA, 20 nM LV, + 1 μM folic acid
[10] = Homo sapiens, KB, read-out: Inhibition of cell growth, IC50, KB, 20 nM LV
[11] = read-out: Inhibition of cell growth, IC50, KB + 1 μM FA, 20 nM LV, + 1 μM folic acid

T4 sequence (P35846 25-232): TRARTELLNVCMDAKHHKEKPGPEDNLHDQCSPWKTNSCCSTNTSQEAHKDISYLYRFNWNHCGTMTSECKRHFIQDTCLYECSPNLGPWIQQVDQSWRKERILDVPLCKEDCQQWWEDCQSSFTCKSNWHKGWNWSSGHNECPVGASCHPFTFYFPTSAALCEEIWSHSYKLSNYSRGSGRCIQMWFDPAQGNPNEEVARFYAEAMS
T5 sequence (P15328 25-234): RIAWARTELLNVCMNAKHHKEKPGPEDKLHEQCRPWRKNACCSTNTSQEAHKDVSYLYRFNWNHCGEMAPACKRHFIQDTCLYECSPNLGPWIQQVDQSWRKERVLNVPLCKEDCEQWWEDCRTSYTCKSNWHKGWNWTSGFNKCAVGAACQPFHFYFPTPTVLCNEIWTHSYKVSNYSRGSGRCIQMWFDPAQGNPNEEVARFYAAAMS
T2 sequence (P07607 whole entry): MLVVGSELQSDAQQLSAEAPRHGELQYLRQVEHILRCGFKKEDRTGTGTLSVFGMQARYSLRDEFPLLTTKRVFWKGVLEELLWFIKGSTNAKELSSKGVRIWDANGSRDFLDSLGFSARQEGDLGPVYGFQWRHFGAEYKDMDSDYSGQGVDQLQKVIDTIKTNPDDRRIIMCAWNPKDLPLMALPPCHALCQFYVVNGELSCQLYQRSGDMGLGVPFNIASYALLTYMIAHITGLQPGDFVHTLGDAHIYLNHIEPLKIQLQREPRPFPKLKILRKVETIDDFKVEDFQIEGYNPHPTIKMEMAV

| Ki [1] | Ki [2] | Ki [3] | Inverse relative affinity for α-FR, L1210-FBP (α-FR [4]) | fold increased IC50 in presence of folic acid, A431-FBP (A431-FBP cells; 20 nM LV) | IC50 (A431-FBP cells; [6]) | IC50 (A431-FBP cells; [7]) | fold increased IC50 in presence of folic acid, A431 (A431 cells; 20 nM LV) | IC50 (A431 cells; [8]) | IC50 (A431 cells; [9]) | Inverse relative affinity for α-FR, A431-FBP (α-FR [5]) | fold increased IC50 in presence of folic acid, KB (KB cells; 20 nM LV) | IC50 (KB cells; [10]) | IC50 (KB cells; [11]) | Structure (SMILES) | fold increased sensitivity compared with A431, A431-FBP (A431-FBP cells; 20 nM LV) |
| --- | --- | --- | --- | --- | --- | --- | --- | --- | --- | --- | --- | --- | --- | --- | --- |
| 97000 nM and 315000 nM | 0.46 nM and 0.77 nM | > 250000 nM | 0.73 ± 0.01 | (100) fold | 9.4 ± 4 nM | 930 ± 210 nM | (1) fold | 1400 ± 260 nM | 1200 ± 510 nM | 0.58 ± 0.017 | (73) fold | 8 ± 1 nM | 580 ± 30 nM | C#CCN(c1ccc(C(=O)N[C@@H](CCC(=O)N[C@H](CCC(=O)O)C(=O)O)C(=O)O)c(F)c1)C1CCc2cc3nc(C)[nH]c(=O)c3cc21 (mixture of isomers) [CB300947 (R, S), N-{N-{4-[N-((6RS)-2methyl-4-oxo-3,4,7,8-tetrahydro-6H-cyclopenta[g]-quinazolin-6-yl)-N-(prop-2-ynyl)amino]-2-fluorobenzoyl}-L-γ-glutamyl}-D-glutamic acid] | (150) fold |
| 115000 ± 12000 nM | 0.33 ± 0.16 nM | > 250000 nM | 0.66 ± 0.08 | (160) fold | 3 ± 2.1 nM | 490 ± 170 nM | (1) fold | 810 ± 310 nM | 970 ± 580 nM | 0.53 ± 0.07 | (110) fold | 3.6 ± 1.5 nM | 390 ± 180 nM | C#CCN(c1ccc(C(=O)N[C@@H](CCC(=O)N[C@H](CCC(=O)O)C(=O)O)C(=O)O)cc1)[C@H]1CCc2cc3nc(C)[nH]c(=O)c3cc21 [CB300638 (S)] | (270) fold |
| 142000 ± 54000 nM | 0.16 nM and 0.17 nM | 186000 ± 121000 nM | 0.61 ± 0.07 | (170) fold | 2.6 ± 1.8 nM | 430 ± 180 nM | (1) fold | 1400 ± 820 nM | 1600 ± 1100 nM | 0.58 ± 0.032 | (79) fold | 6.2 ± 3 nM | 490 ± 140 nM | C#CCN(c1ccc(C(=O)N[C@@H](CCC(=O)N[C@H](CCC(=O)O)c2nnn[nH]2)C(=O)O)cc1)[C@H]1CCc2cc3nc(C)[nH]c(=O)c3cc21 [CB300907 (S)] | (540) fold |
